System: single deposited B-cells
Test: co-cultivation of single deposited B-cells with EL-4 B5 feeder cells; IgG in supernatant by ELISA
Format: cell-based, rabbit
Details: for frequency per plate of rbIgG-positive wells: 5,000 non-irradiated EL-4 B5 cells per well
Experimental: Single cell sorted B-cells were cultured in 96-well plates with 200 μl/well EL-4 B5 medium with Pansorbin Cells (SAC) (Calbiochem (Merck), Darmstadt, Deutschland), EL-4 B5 cells (0-5×10^4/well) and rabbit thymocyte supernatant or cytokine mix, respectively, for 7 days at 37° C. in an atmosphere of 5% CO2 in the incubator. B-cell culture supernatants were removed for screening and the cells harvested immediately for variable region gene cloning or frozen at −80° C. in 100 μl RLT buffer (Qiagen, Hilden, Germany).
A mixture of 0.5 μg/ml of biotinylated mouse anti-rabbit IgG antibody (Sigma-Aldrich) and 0.35 μg/ml anti-rabbit IgG HRP conjugate (Sigma-Aldrich) was transferred to 384 well streptavidin coated microtiter plates (MicroCoat Biotechnologie GmbH). Dilutions of B-cell supernatants in PBS supplemented with 0.5% BSA and 0.05% Tween®-20 were added and incubated for 90 min at RT. After repeated washing (6×) with PBST (phosphate buffered saline with 0.2% Tween buffer the plates were developed with BM Blue® HRP substrate solution and color formation was measured by absorbance at 370 nm. A commercial rabbit IgG (Sigma-Aldrich) was used as a calibration standard.

[1] = PMA 0.048 ng/ml, 3 Gy, 15k/Well
[2] = PMA 0.048 ng/ml, 4 Gy, 20k/Well
[3] = PMA 0.048 ng/ml, 5 Gy, 20k/Well
[4] = PMA 0.048 ng/ml, 8 Gy, 20k/Well
[5] = PMA 0.048 ng/ml, 50 Gy, 50k/Well
[6] = PMA 0.109 ng/ml, 3 Gy, 15k/Well
[7] = PMA 0.109 ng/ml, 4 Gy, 20k/Well
[8] = PMA 0.109 ng/ml, 5 Gy, 20k/Well
[9] = PMA 0.109 ng/ml, 8 Gy, 20k/Well
[10] = PMA 0.109 ng/ml, 50 Gy, 50k/Well
[11] = PMA 0.25 ng/ml, 50 Gy, 50k/Well

## CCCCCCCCCCCCCC(=O)O[C@@H]1[C@@H](C)[C@@]2(O)[C@@H](C=C(CO)C[C@]3(O)C(=O)C(C)=C[C@@H]23)[C@@H]2C(C)(C)[C@]12OC(C)=O [PMA, phorbol-12-myristate-13-acetate]
4 Gy irradiated EL-4 B5 cells, 0.015 ng/ml to 1.3 ng/ml PMA
  influence of PMA concentration on frequency of IgG positive wells or productivity: no influence
50 Gy irradiated EL-4 B5 cells
  effect of the addition of PMA on frequency and productivity: concentration dependent effect
[1]
  Average IgG Productivity of all IgG+ wells: 1.405 µg/mL
  IgG+ Frequency: 48.8 % total wells
[2]
  Average IgG Productivity of all IgG+ wells: 5.465 µg/mL
  IgG+ Frequency: 73.8 % total wells
[3]
  Average IgG Productivity of all IgG+ wells: 5.769 µg/mL
  IgG+ Frequency: 71.4 % total wells
[4]
  Average IgG Productivity of all IgG+ wells: 5.739 µg/mL
  IgG+ Frequency: 84.5 % total wells
[5]
  Average IgG Productivity of all IgG+ wells: 2.821 µg/mL
  IgG+ Frequency: 14.3 % total wells
PMA 0.08 ng/ml, 0.031x CM
  frequency per plate of rbIgG-positive wells: 39.3 % total
PMA 0.08 ng/ml, 0.1x CM
  frequency per plate of rbIgG-positive wells: 44.0 % total
PMA 0.08 ng/ml, 0.31x CM
  frequency per plate of rbIgG-positive wells: 51.2 % total
PMA 0.08 ng/ml, 1x CM
  frequency per plate of rbIgG-positive wells: 65.5 % total
PMA 0.08 ng/ml, 2x CM
  frequency per plate of rbIgG-positive wells: 65.5 % total
[6]
  Average IgG Productivity of all IgG+ wells: 2.932 µg/mL
  IgG+ Frequency: 47.6 % total wells
[7]
  Average IgG Productivity of all IgG+ wells: 5.772 µg/mL
  IgG+ Frequency: 76.2 % total wells
[8]
  Average IgG Productivity of all IgG+ wells: 5.335 µg/mL
  IgG+ Frequency: 83.3 % total wells
[9]
  Average IgG Productivity of all IgG+ wells: 5.614 µg/mL
  IgG+ Frequency: 77.4 % total wells
[10]
  Average IgG Productivity of all IgG+ wells: 1.942 µg/mL
  IgG+ Frequency: 16.7 % total wells
PMA 0.14 ng/ml, 0.031x CM
  frequency per plate of rbIgG-positive wells: 35.7 % total
PMA 0.14 ng/ml, 0.1x CM
  frequency per plate of rbIgG-positive wells: 52.4 % total
PMA 0.14 ng/ml, 0.31x CM
  frequency per plate of rbIgG-positive wells: 54.8 % total
PMA 0.14 ng/ml, 1x CM
  frequency per plate of rbIgG-positive wells: 69.0 % total
PMA 0.14 ng/ml, 2x CM
  frequency per plate of rbIgG-positive wells: 54.8 % total
PMA 0.25 ng/ml, 0.031x CM
  frequency per plate of rbIgG-positive wells: 53.6 % total
PMA 0.25 ng/ml, 0.1x CM
  frequency per plate of rbIgG-positive wells: 54.8 % total
PMA 0.25 ng/ml, 0.31x CM
  frequency per plate of rbIgG-positive wells: 73.8 % total
PMA 0.25 ng/ml, 1x CM
  frequency per plate of rbIgG-positive wells: 65.5 % total
PMA 0.25 ng/ml, 2x CM
  frequency per plate of rbIgG-positive wells: 48.8 % total
PMA 0.25 ng/ml, 3 Gy, 15k/Well
  Average IgG Productivity of all IgG+ wells: 3.094 µg/mL
  IgG+ Frequency: 47.6 % total wells
PMA 0.25 ng/ml, 4 Gy, 20k/Well
  Average IgG Productivity of all IgG+ wells: 4.61 µg/mL
  IgG+ Frequency: 75 % total wells
PMA 0.25 ng/ml, 5 Gy, 20k/Well
  Average IgG Productivity of all IgG+ wells: 5.313 µg/mL
  IgG+ Frequency: 84.5 % total wells
PMA 0.25 ng/ml, 8 Gy, 20k/Well
  Average IgG Productivity of all IgG+ wells: 5.945 µg/mL
  IgG+ Frequency: 88.1 % total wells
[11]
  Average IgG Productivity of all IgG+ wells: 1.893 µg/mL
  IgG+ Frequency: 20.2 % total wells
PMA 0.43 ng/ml, 0.031x CM
  frequency per plate of rbIgG-positive wells: 67.9 % total

— patent publication US11952586B2, “B-cell cultivation method” (Hoffmann-La Roche Inc., priority 2017, dated 2024)
